US20210000911A1, “COMPOSITIONS AND METHODS FOR PROTECTING EPITHELIAL AND BARRIER INTEGRITY” (OCUNEXUS THERAPEUTICS, INC., priority 2019, published 2021)
Entries after “also recorded” stand apart in the source; their conditions may differ.

Tests used:
ARPE-19 cells [1] = assay: Trans-epithelial electrical resistance (TEER) of ARPE-19 monolayer after HG and cytokine challenge; assay type: cell-based, Human; settings: ARPE-19, HG 32.5 mM + TNF-α and IL-1β 10 ng/mL, Peptide5 25 μM
Description: (§1) Cell Culture—Human adult retinal pigment epithelial cells (ARPE-19; American Type Culture Collection, USA) were cultured in Dulbecco's Modified Eagle Medium Nutrient Mixture F-12 (DMEM-F12; Thermofisher Scientific Inc., USA) supplemented with 10% foetal bovine serum (FBS; Invitrogen, USA) and a 1× antibiotics and antimycotics mixture (AA, 100× stock) at 37° C. in a humidified 5% CO2 incubator. Cells were grown in T75 flasks and the medium was changed twice per week until confluent.
HG and/or cytokine challenge—At passage 6-12, cells were plated at 2.5×10^5 cells/mL in 8-well chamber slides for immunohistochemical studies, 6-well plates for TEER and FITC-dextran studies or 96-well plates for the […] dehydrogenase (LDH) and ATP release assay until confluent after which the culture medium was changed to treatments in serum-free DMEM-F12 containing 1×AA for 24 h. […]
Measurement of Trans-Epithelial Electrical Resistance (TEER)—Cells were seeded at 2.5×10^5 cells/mL on polyester membranes in Transwell® 6-well plates (Corning Incorporated, USA) in growth medium and incubated for 72 h. […] Net TEER values were calculated by subtracting the resistance in Transwell inserts without cells from the experimental values obtained from chamber containing cells. […] The sample size was three readings per well, repeated three times in separate experiments.

ARPE-19 cells [2] = assay: ZO-1 immunohistochemistry (localisation); assay type: cell-based, Human; settings: ARPE-19, HG + cytokines, Peptide5 25 μM, 72 h
Description: as §1, with “confluent. […]” for “confluent.”
(§2) Image analysis and quantification of collagen IV immunolabelling—Images were taken on an Olympus FV1000 confocal laser scanning microscope (Olympus, Japan). […] Both ZO-1 and connexin43 expression were qualitatively assessed for changes in localisation. Collagen IV labelling was quantified from four images taken per well and the experiment was repeated three times. […] The total area covered by collagen IV was then quantified using the ‘measure’ feature in ImageJ. Collagen IV results were expressed as a percentage of untreated (basal) cells.

ARPE-19 cells [3] = assay: Lactate dehydrogenase (LDH) release assay; assay type: cell-based, Human; settings: ARPE-19, HG + cytokines, 72 h
Description: as §1, with “confluent. […]” for “confluent.”
Lactate Dehydrogenase (LDH) assay—Cells were seeded at 2.5×10^5 cells/mL in 96-well plates until confluent after which the culture medium was changed to treatments in serum-free DMEM-F12 containing 1×AA for 72 h. […] The amount of LDH released was assessed using an LDH assay kit as per manufacturer instructions (Sigma-Aldrich, USA). […] A Synergy 2 multi-mode plate reader (BioTek Instruments Inc., USA) was used to measure the absorbance of the formazan dye in the medium at 490 nm (OD490). LDH release (%) was calculated relative to basal conditions.

ARPE-19 cells [4] = assay: Connexin43 immunohistochemistry (gap junction plaque localisation); assay type: cell-based, Human; settings: ARPE-19, HG + cytokines, 72 h
Description: as §1, with “confluent. […]” for “confluent.”
as §2

connexin43 hemichannel = connexin43 hemichannel (human, UniProt P17302 2-382); assay: cell-based or functional assay
Chain of connexin43 hemichannel (P17302 2-382): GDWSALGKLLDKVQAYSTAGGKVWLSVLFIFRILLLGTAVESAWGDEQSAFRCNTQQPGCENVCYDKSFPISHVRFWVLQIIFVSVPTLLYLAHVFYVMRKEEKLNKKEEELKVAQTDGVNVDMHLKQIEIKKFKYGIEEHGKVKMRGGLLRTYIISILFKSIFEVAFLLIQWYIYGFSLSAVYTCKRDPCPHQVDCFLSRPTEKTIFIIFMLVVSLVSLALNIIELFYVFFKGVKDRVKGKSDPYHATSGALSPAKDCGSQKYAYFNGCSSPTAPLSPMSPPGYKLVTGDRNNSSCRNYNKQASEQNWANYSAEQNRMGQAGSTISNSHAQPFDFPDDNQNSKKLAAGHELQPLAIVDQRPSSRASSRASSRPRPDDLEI

[5] = Peptide5 25 μM plus exogenous ATP 100 nM

| FITC-dextran permeability at 72 h (% relative to blank wells), ARPE-19 monolayer with HG and cytokines, Peptide5 at 25 uM (connexin43 hemichannel) | Molecule | TEER relative to basal conditions (ARPE-19 cells [1]; 48 h) | TEER relative to basal conditions (ARPE-19 cells [1]; 72 h) | ZO-1 localisation at the cell membrane (qualitative) (ARPE-19 cells [2]) | LDH release with exogenously added ATP (ARPE-19 cells [3]; [5]) | LDH release relative to basal conditions (ARPE-19 cells [3]; Peptide5 25 μM) | Connexin43 localisation with exogenously added ATP (qualitative) (ARPE-19 cells [4]; [5]) | Connexin43 localisation at the cell membrane (qualitative) (ARPE-19 cells [4]; Peptide5 25 μM) |
| --- | --- | --- | --- | --- | --- | --- | --- | --- |
| – | H-Val-Asp-Cys-Phe-Leu-Ser-Arg-Pro-Thr-Glu-Lys-Thr-OH (H-VDCFLSRPTEKT-OH) [Peptide5] | no statistically significant difference between Peptide5-treated and basal cells; also recorded: prevented a decrease in TEER at both time-points | no statistically significant difference between Peptide5-treated and basal cells; also recorded: prevented a decrease in TEER at both time-points | maintained ZO-1 localisation to cell membranes similar to basal conditions | once-again increased LDH release; also recorded: LDH levels were increased to injury levels | LDH release remains low; also recorded: prevented LDH release relative to basal conditions; also recorded: reduced by Peptide5 treatment | change in connexin43 gap junction localisation; also recorded: again a loss of connexin43 at cell membranes | protected against the redistribution of connexin43 localisation away from the cell membrane and into the cytoplasm; also recorded: connexin43 is kept in its normal pattern; also recorded: maintained connexin43 primarily in gap junction plaques, similar to basal conditions |
| 33.2% | H-VDCFLSRPTEKT-OH [Peptide5 (H-Val-Asp-Cys-Phe-Leu-Ser-Arg-Pro-Thr-Glu-Lys-Thr-OH)] | – | – | – | – | – | – | – |
